Measured values reported in the NIST ThermoML archive (doi:10.1016/j.fluid.2010.10.028).

Experiment: xn = mol fraction of the nth substance listed
Conditions: Liquid, Vibrating tube method

CC(C)=O [acetone] + CCCCCCC
Conditions	mass density [kg/m3]
357.55 K, 24990 kPa, x1 = 0.4	726.84
357.55 K, 24990 kPa, x1 = 0.8992	726.84
357.55 K, 29870 kPa, x1 = 0.492	686.24
357.55 K, 29870 kPa, x1 = 0.611	695.58
357.55 K, 29970 kPa, x1 = 0.4	732.49
357.55 K, 29970 kPa, x1 = 0.8992	732.49
357.55 K, 34840 kPa, x1 = 0.492	691.34
357.55 K, 34860 kPa, x1 = 0.611	700.78
357.55 K, 34960 kPa, x1 = 0.4	737.79
357.55 K, 34960 kPa, x1 = 0.8992	737.79
357.55 K, 39860 kPa, x1 = 0.492	696.15
357.55 K, 39860 kPa, x1 = 0.611	705.69
357.55 K, 39960 kPa, x1 = 0.4	742.81
357.55 K, 39960 kPa, x1 = 0.8992	742.81
357.55 K, 44840 kPa, x1 = 0.492	700.71
357.55 K, 44850 kPa, x1 = 0.611	710.3
357.55 K, 44950 kPa, x1 = 0.4	747.57
357.55 K, 44950 kPa, x1 = 0.8992	747.57
357.55 K, 49840 kPa, x1 = 0.611	714.7
357.55 K, 49940 kPa, x1 = 0.4	752.09
357.55 K, 49940 kPa, x1 = 0.8992	752.09
357.55 K, 54850 kPa, x1 = 0.492	709.15
357.55 K, 54940 kPa, x1 = 0.4	756.43
357.55 K, 54940 kPa, x1 = 0.611	718.97
357.55 K, 54940 kPa, x1 = 0.8992	756.43
357.55 K, 59860 kPa, x1 = 0.492	713.06
357.55 K, 59930 kPa, x1 = 0.4	760.56
357.55 K, 59930 kPa, x1 = 0.611	722.96
357.55 K, 59930 kPa, x1 = 0.8992	760.56
357.55 K, 64830 kPa, x1 = 0.492	716.77
357.55 K, 64890 kPa, x1 = 0.4	764.53
357.55 K, 64890 kPa, x1 = 0.8992	764.53
357.55 K, 69890 kPa, x1 = 0.4	768.36
357.55 K, 69890 kPa, x1 = 0.8992	768.36
357.55 K, 69910 kPa, x1 = 0.611	730.41
357.55 K, 69930 kPa, x1 = 0.492	720.43
357.55 K, 74860 kPa, x1 = 0.4	772.01
357.55 K, 74860 kPa, x1 = 0.8992	772.01
357.55 K, 74890 kPa, x1 = 0.611	733.9
357.55 K, 74910 kPa, x1 = 0.492	723.89
357.55 K, 79780 kPa, x1 = 0.7024	747.09
357.55 K, 79880 kPa, x1 = 0.611	737.26
357.55 K, 84830 kPa, x1 = 0.4	778.99
357.55 K, 84830 kPa, x1 = 0.8992	778.99
357.55 K, 89740 kPa, x1 = 0.7024	753.59
357.55 K, 89810 kPa, x1 = 0.4	782.3
357.55 K, 89810 kPa, x1 = 0.8992	782.3
357.55 K, 89830 kPa, x1 = 0.611	743.64
357.55 K, 94820 kPa, x1 = 0.611	746.67
357.55 K, 94860 kPa, x1 = 0.492	736.47
357.55 K, 99800 kPa, x1 = 0.611	749.61
357.55 K, 99820 kPa, x1 = 0.7024	759.74
357.55 K, 104700 kPa, x1 = 0.4	791.65
357.55 K, 104700 kPa, x1 = 0.8992	791.65
357.55 K, 104820 kPa, x1 = 0.7024	762.65
357.55 K, 109810 kPa, x1 = 0.7024	765.49
357.55 K, 114810 kPa, x1 = 0.7024	768.22
357.55 K, 119810 kPa, x1 = 0.7024	770.9
357.55 K, 124810 kPa, x1 = 0.7024	773.52
357.55 K, 129800 kPa, x1 = 0.7024	776.06
357.56 K, 1060 kPa, x1 = 0.801	677.14
357.56 K, 4870 kPa, x1 = 0.801	683.82
357.56 K, 9840 kPa, x1 = 0.801	691.71
357.56 K, 14860 kPa, x1 = 0.801	698.89
357.56 K, 34850 kPa, x1 = 0.801	722.54
357.56 K, 49850 kPa, x1 = 0.492	705.01
357.56 K, 59820 kPa, x1 = 0.801	745.17
357.56 K, 64910 kPa, x1 = 0.611	726.75
357.56 K, 64920 kPa, x1 = 0.801	749.17
357.56 K, 69910 kPa, x1 = 0.801	752.93
357.56 K, 74880 kPa, x1 = 0.801	756.52
357.56 K, 79850 kPa, x1 = 0.4	775.55
357.56 K, 79850 kPa, x1 = 0.8992	775.55
357.56 K, 79900 kPa, x1 = 0.492	727.2
357.56 K, 84860 kPa, x1 = 0.611	740.5
357.56 K, 84870 kPa, x1 = 0.801	763.37
357.56 K, 84890 kPa, x1 = 0.492	730.4
357.56 K, 89840 kPa, x1 = 0.801	766.6
357.56 K, 89880 kPa, x1 = 0.492	733.49
357.56 K, 94780 kPa, x1 = 0.4	785.51
357.56 K, 94780 kPa, x1 = 0.8992	785.51
357.56 K, 94830 kPa, x1 = 0.801	769.76
357.56 K, 99750 kPa, x1 = 0.4	788.61
357.56 K, 99750 kPa, x1 = 0.8992	788.61
357.56 K, 99810 kPa, x1 = 0.801	772.8
357.56 K, 99830 kPa, x1 = 0.492	739.34
357.56 K, 104780 kPa, x1 = 0.611	752.46
357.56 K, 104780 kPa, x1 = 0.801	775.76
357.56 K, 104810 kPa, x1 = 0.492	742.14
357.56 K, 109680 kPa, x1 = 0.4	794.58
357.56 K, 109680 kPa, x1 = 0.8992	794.58
357.56 K, 109800 kPa, x1 = 0.492	744.86
357.56 K, 109860 kPa, x1 = 0.611	755.29
357.56 K, 114650 kPa, x1 = 0.4	797.46
357.56 K, 114650 kPa, x1 = 0.8992	797.46
357.56 K, 114760 kPa, x1 = 0.492	747.47
357.56 K, 114840 kPa, x1 = 0.801	781.49
357.56 K, 114860 kPa, x1 = 0.611	758
357.56 K, 119620 kPa, x1 = 0.4	800.25
357.56 K, 119620 kPa, x1 = 0.8992	800.25
357.56 K, 119840 kPa, x1 = 0.611	760.62
357.56 K, 119850 kPa, x1 = 0.492	750.09
357.56 K, 124590 kPa, x1 = 0.4	802.96
357.56 K, 124590 kPa, x1 = 0.8992	802.96
357.56 K, 124850 kPa, x1 = 0.492	752.62
357.56 K, 124850 kPa, x1 = 0.611	763.18
357.56 K, 124850 kPa, x1 = 0.801	786.88
357.56 K, 129540 kPa, x1 = 0.4	805.62
357.56 K, 129540 kPa, x1 = 0.8992	805.62
357.56 K, 129840 kPa, x1 = 0.492	755.04
357.56 K, 129850 kPa, x1 = 0.611	765.68
357.57 K, 19850 kPa, x1 = 0.801	705.47
357.57 K, 24850 kPa, x1 = 0.801	711.56
357.57 K, 29850 kPa, x1 = 0.801	717.2
357.57 K, 39860 kPa, x1 = 0.801	727.56
357.57 K, 44860 kPa, x1 = 0.801	732.3
357.57 K, 49830 kPa, x1 = 0.801	736.79
357.57 K, 54840 kPa, x1 = 0.801	741.09
357.57 K, 79870 kPa, x1 = 0.801	760
357.57 K, 109760 kPa, x1 = 0.801	778.61
357.57 K, 119850 kPa, x1 = 0.801	784.21
357.57 K, 129840 kPa, x1 = 0.801	789.47
367.47 K, 1110 kPa, x1 = 0.7024	653.24
367.47 K, 4830 kPa, x1 = 0.7024	660.5
367.47 K, 9820 kPa, x1 = 0.7024	669.16
367.47 K, 14810 kPa, x1 = 0.7024	676.86
367.47 K, 19800 kPa, x1 = 0.7024	683.87
367.47 K, 24870 kPa, x1 = 0.7024	690.44
367.47 K, 29900 kPa, x1 = 0.7024	696.42
367.47 K, 29980 kPa, x1 = 0.4	723.61
367.47 K, 29980 kPa, x1 = 0.8992	723.61
367.47 K, 34870 kPa, x1 = 0.7024	701.98
367.47 K, 39870 kPa, x1 = 0.7024	707.22
367.47 K, 44860 kPa, x1 = 0.7024	712.14
367.47 K, 49850 kPa, x1 = 0.7024	716.78
367.47 K, 54840 kPa, x1 = 0.7024	721.18
367.47 K, 59880 kPa, x1 = 0.4	753.02
367.47 K, 59880 kPa, x1 = 0.8992	753.02
367.47 K, 64830 kPa, x1 = 0.7024	729.41
367.47 K, 69810 kPa, x1 = 0.7024	733.25
367.47 K, 79780 kPa, x1 = 0.7024	740.5
367.47 K, 89740 kPa, x1 = 0.7024	747.21
367.47 K, 94830 kPa, x1 = 0.7024	750.48
367.47 K, 99830 kPa, x1 = 0.7024	753.58
367.47 K, 104830 kPa, x1 = 0.7024	756.58
367.47 K, 109810 kPa, x1 = 0.7024	759.49
367.47 K, 114820 kPa, x1 = 0.7024	762.32
367.47 K, 119810 kPa, x1 = 0.7024	765.08
367.47 K, 124820 kPa, x1 = 0.7024	767.78
367.47 K, 129810 kPa, x1 = 0.7024	770.39
367.48 K, 1150 kPa, x1 = 0.611	644.69
367.48 K, 5040 kPa, x1 = 0.4	687.92
367.48 K, 5040 kPa, x1 = 0.8992	687.92
367.48 K, 9850 kPa, x1 = 0.611	660.49
367.48 K, 10030 kPa, x1 = 0.4	696.45
367.48 K, 10030 kPa, x1 = 0.8992	696.45
367.48 K, 15010 kPa, x1 = 0.4	704.13
367.48 K, 15010 kPa, x1 = 0.8992	704.13
367.48 K, 19860 kPa, x1 = 0.611	675.16
367.48 K, 20000 kPa, x1 = 0.4	711.11
367.48 K, 20000 kPa, x1 = 0.8992	711.11
367.48 K, 24860 kPa, x1 = 0.611	681.55
367.48 K, 25000 kPa, x1 = 0.4	717.58
367.48 K, 25000 kPa, x1 = 0.8992	717.58
367.48 K, 29870 kPa, x1 = 0.611	687.49
367.48 K, 34860 kPa, x1 = 0.611	693
367.48 K, 39940 kPa, x1 = 0.4	734.49
367.48 K, 39940 kPa, x1 = 0.8992	734.49
367.48 K, 44850 kPa, x1 = 0.611	703
367.48 K, 44920 kPa, x1 = 0.4	739.45
367.48 K, 44920 kPa, x1 = 0.8992	739.45
367.48 K, 49910 kPa, x1 = 0.4	744.24
367.48 K, 49910 kPa, x1 = 0.8992	744.24
367.48 K, 49940 kPa, x1 = 0.611	707.7
367.48 K, 54900 kPa, x1 = 0.4	748.72
367.48 K, 54900 kPa, x1 = 0.8992	748.72
367.48 K, 54920 kPa, x1 = 0.611	712.06
367.48 K, 59830 kPa, x1 = 0.7024	725.38
367.48 K, 64860 kPa, x1 = 0.4	757.11
367.48 K, 64860 kPa, x1 = 0.8992	757.11
367.48 K, 64900 kPa, x1 = 0.611	720.16
367.48 K, 69840 kPa, x1 = 0.4	761.04
